Test: Franz diffusion cell skin penetration assay
Format: in vitro ADME, human
Settings: for pal-KT Skin Penetration: Surface Residual / pal-KT Skin Penetration: Dermis / pal-KT Skin Penetration: Epidermis / pal-KT Skin Penetration: Total Penetration / pal-KT Skin Penetration: Receptor: pal-KT 5 ppm; for pal-KT Skin Penetration: Surface Residual: 14C-spiked, 24 h after topical dose on human skin; for pal-KT Skin Penetration: Total Penetration: epidermis+dermis+receptor; for pal-KT Skin Penetration: Receptor: receptor solution (transdermal)
Experimental: The method is described. […] (40 ppm) is assessed using the Franz diffusion cell assay (4, T. J. Franz, J. Invest. Dermatol. 64: 190-195, 1975; T. J. Franz, et al., Skin Pharmacol. Physiol. 22: 276-286, 2009). The peptides are formulated in a skin care silicone-in-water (SWF) formulation with or without 10 wt % SACRAN. The formulations are spiked with ^14C-pal-KT or ^3H-PKEK. Twenty-four hours after topically dosed on human skin, residual product is removed from the skin surface, the epidermal and dermal layers were separated, and receptor solutions (transdermal) are collected.

[1] = SWF + 10 wt % SACRAN versus SWF, 24 h, human skin
[2] = SWF formulation without SACRAN (control), 24 h

amount recovered from the surface of the skin with SACRAN versus without (in words) [1]: statistically significant lower amount | effect of addition of SACRAN on skin penetration (in words) [1]: increased | pal-KT Skin Penetration: Surface Residual (SWF + 10 wt % SACRAN): 173.2 ± 18.1 ng/cm^2 | pal-KT Skin Penetration: Dermis (SWF + 10 wt % SACRAN, 24 h): 14.8 ± 1.65 ng/cm^2 | pal-KT Skin Penetration: Epidermis (SWF + 10 wt % SACRAN, 24 h): 128.3 ± 17.1 ng/cm^2 | pal-KT Skin Penetration: Total Penetration (SWF + 10 wt % SACRAN, 24 h): 143.3 ± 18.1 ng/cm^2 | pal-KT Skin Penetration: Receptor (SWF + 10 wt % SACRAN, 24 h): 0.09 ± 0.07 ng/cm^2 | increase in skin penetration by addition of SACRAN to SWF (SWF + SACRAN versus SWF, single topical application): 60% | pal-KT Skin Penetration: Surface Residual (SWF formulation without SACRAN (control)): 228.5 ± 10.2 ng/cm^2 | pal-KT Skin Penetration: Dermis [2]: 14.3 ± 1.4 ng/cm^2 | pal-KT Skin Penetration: Epidermis [2]: 72.5 ± 9.5 ng/cm^2 | pal-KT Skin Penetration: Total Penetration [2]: 88.0 ± 10.2 ng/cm^2 | pal-KT Skin Penetration: Receptor [2]: 0.14 ± 0.14 ng/cm^2
Structure (SMILES): CCCCCCCCCCCCCCCC(=O)N[C@@H](CCCCN)C(=O)N[C@H](C(=O)O)[C@@H](C)O [pal-KT, palmitoyl-lysine-threonine]
